Data published in the supplement of paper PMC10307832.

How the values were obtained:
Experiment in all cases: relative viability (nuclei count vs DMSO), 5 days (fraction); higher = more cells survive
[1] = compound: Nc1ccn([C@@H]2O[C@H](CO)[C@@H](O)C2(F)F)c(=O)n1 [Gemcitabine] + NC(=O)Nc1cc(-c2cccc(F)c2)sc1C(=O)N[C@H]1CCCNC1 [AZD7762] (partner 0.2 µM)
Method in brief: (§1)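 The day after seeding in 1536-well plates, lung cancer cell lines were treated by pin tool with a single drug, or with a fixed anchor-drug dose together with five library-drug doses (not always all listed) in √10 steps. After 5 days, a combined fix-and-stain solution (final 0.05% Triton X-100, 1% formaldehyde, 1 ug/ml Hoechst) was added. Nuclei counted on 4× images gave relative viability as treated counts over vehicle counts, reported as the median of duplicate plates.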

[2] = compound: Nc1ccn([C@@H]2O[C@H](CO)[C@@H](O)C2(F)F)c(=O)n1 [Gemcitabine] + Nc1nc2[nH]cc(CCc3ccc(C(=O)N[C@@H](CCC(=O)O)C(=O)O)cc3)c2c(=O)[nH]1 [Pemetrexed] (partner 0.2 µM)
Method in brief: as §1

[3] = compound: Nc1ccn([C@@H]2O[C@H](CO)[C@@H](O)C2(F)F)c(=O)n1 [Gemcitabine] + COc1cccc2cc(-c3nc([C@H]4CC[C@H](C(=O)O)CC4)n4ncnc(N)c34)[nH]c12 [OSI-027] (partner 0.5 µM)
Method in brief: as §1

[4] = compound: Nc1ccn([C@@H]2O[C@H](CO)[C@@H](O)C2(F)F)c(=O)n1 [Gemcitabine] + COc1cc2c(Oc3ccc(NC(=O)C4(C(=O)Nc5ccc(F)cc5)CC4)cc3F)ccnc2cc1OCCCN1CCOCC1 [Foretinib] (partner 0.25 µM)
Method in brief: as §1

Cell Line | relative viability ([1]; first compound 0.001 µM) | relative viability ([1]; first compound 0.003162 µM) | relative viability ([1]; first compound 0.01 µM) | relative viability ([1]; first compound 0.03162 µM) | relative viability ([1]; first compound 0.1 µM) | relative viability ([2]; first compound 0.001 µM) | relative viability ([2]; first compound 0.003162 µM) | relative viability ([2]; first compound 0.01 µM) | relative viability ([2]; first compound 0.03162 µM) | relative viability ([2]; first compound 0.1 µM) | relative viability ([3]; first compound 0.001 µM) | relative viability ([3]; first compound 0.01 µM) | relative viability ([3]; first compound 0.03162 µM) | relative viability ([3]; first compound 0.1 µM) | relative viability ([3]; first compound 0.003162 µM) | relative viability ([4]; first compound 0.001 µM) | relative viability ([4]; first compound 0.003162 µM) | relative viability ([4]; first compound 0.01 µM) | relative viability ([4]; first compound 0.03162 µM) | relative viability ([4]; first compound 0.1 µM)
NCI-H1648 | 0.686 | 0.551 | 0.401 | 0.3 | 0.279 | 0.836 | 0.64 | 0.628 | 0.339 | 0.349 | 0.245 | 0.245 | 0.228 | 0.276 | – | – | – | – | – | –
HCC-44 | 0.971 | 1.03 | 0.942 | 0.226 | 0.271 | 0.634 | 0.68 | 0.66 | 0.632 | 0.63 | 0.562 | 0.357 | 0.178 | 0.155 | 0.352 | – | – | – | – | –
NCI-H2228 | – | – | – | – | – | 0.348 | 0.332 | 0.166 | 0.092 | 0.112 | 0.614 | 0.129 | 0.122 | 0.0908 | 0.24 | 0.913 | 0.536 | 0.198 | 0.183 | 0.0975
ABC-1 | 0.748 | 0.757 | 0.964 | 0.295 | 0.304 | – | – | – | – | – | 0.364 | 0.218 | 0.252 | 0.116 | – | 0.886 | – | 1.06 | 0.312 | 0.17
COR-L23 | – | – | – | – | – | 0.198 | 0.19 | 0.19 | 0.14 | 0.129 | 0.955 | 0.264 | 0.0984 | 0.101 | 0.627 | 0.972 | 0.898 | 0.556 | 0.123 | 0.0959
NCI-H661 | – | – | – | – | – | 0.895 | 0.998 | 0.891 | 0.299 | 0.216 | 0.767 | 0.374 | 0.204 | 0.208 | 0.597 | 1.04 | 0.871 | 0.956 | 0.341 | 0.218
